Test results published in patent EP4782445A1, “CDK KINASE INHIBITOR AND USE THEREOF” (Abbisko Therapeutics Co., Ltd., priority 2023, dated 2025).

Columns and labels:
[1] = target: T1, CDK4/cyclin D3 (Homo sapiens, UniProt P11802); experiment: In vitro biochemical kinase activity assay for CDK4/cyclin D3 (HTRF); settings: data marked with *: 1 mM ATP in Step 1
T1 construct: purchased Carna
Method: II. In Vitro Biochemical Kinase Activity Assay for CDK4/Cyclin D3
The inhibitory effects of the compounds of the present invention on CDK4/cyclin D3 kinase activity were determined using an HTRF assay. The experimental process was as follows: • 1. The kinase reaction was carried out in a 384-well plate. 4.9 nM CDK4/cyclin D3 (Carna), 1 mM (or 80 µM) ATP, and 0.3 µM biotin-labeled substrate protein Rb-biotin (Cisbio) were incubated at 30°C for 90 min in a buffer system composed of 50 mM MgCl2, 1 mM DTT, and basal kinase buffer (Cisbio). • 2. The detection solution (Cisbio, containing reagents that specifically recognize phosphorylated Rb and Rb-biotin proteins, respectively) was added. The plate was then sealed with a film (to protect from light and volatilization) and incubated at 25°C for 60 min. • 3. The plate was transferred to an Envision plate reader to detect FRET signals. (The 665/615 ratio was calculated by reading the emission at 665 nm and 615 nM, respectively.) • 4. The IC50 values were determined by analyzing the inhibition at varying compound concentrations using Model 205 in the XLfit software.

[2] = target: T2, CDK6/cyclin D3 (Homo sapiens, UniProt Q00534); experiment: In vitro biochemical kinase activity assay for CDK6/cyclin D3 (HTRF); settings: data marked with *: 1 mM ATP in Step 1
T2 construct: purchased Carna
T2 sequence (Q00534 whole entry): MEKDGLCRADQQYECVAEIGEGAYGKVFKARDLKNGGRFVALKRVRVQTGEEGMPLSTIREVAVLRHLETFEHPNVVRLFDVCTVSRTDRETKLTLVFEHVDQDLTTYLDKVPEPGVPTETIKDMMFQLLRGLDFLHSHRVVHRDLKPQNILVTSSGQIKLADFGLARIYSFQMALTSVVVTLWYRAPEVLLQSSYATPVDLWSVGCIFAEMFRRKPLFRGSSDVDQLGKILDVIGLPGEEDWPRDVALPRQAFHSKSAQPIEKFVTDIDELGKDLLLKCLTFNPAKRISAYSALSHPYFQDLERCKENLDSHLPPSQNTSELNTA
T2 sequence (P30281 whole entry partner): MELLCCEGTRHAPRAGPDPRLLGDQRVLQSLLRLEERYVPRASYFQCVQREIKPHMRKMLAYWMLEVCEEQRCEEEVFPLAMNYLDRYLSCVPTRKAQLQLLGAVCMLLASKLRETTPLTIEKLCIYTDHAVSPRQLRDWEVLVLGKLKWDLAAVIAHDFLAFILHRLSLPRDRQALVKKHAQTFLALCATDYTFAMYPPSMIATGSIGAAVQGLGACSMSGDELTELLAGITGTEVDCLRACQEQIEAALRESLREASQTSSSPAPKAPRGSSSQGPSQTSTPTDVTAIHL
Method: III. In Vitro Biochemical Kinase Activity Assay for CDK6/Cyclin D3
The inhibitory effects of the compounds of the present invention on CDK6/cyclin D3 kinase activity were determined using an HTRF assay. The experimental process was as follows: 1. The kinase reaction was carried out in a 384-well plate. 0.02 nM CDK6/cyclin D3 (Carna), 1 mM (or 100 µM) ATP, and 0.3 µM biotin-labeled substrate protein Rb-biotin (Cisbio) were incubated at 30°C for 60 min in a buffer system composed of 5 mM MgCl2, 1 mM DTT, and basal kinase buffer (Cisbio). 2. The detection solution (Cisbio, containing reagents that specifically recognize phosphorylated Rb and Rb-biotin proteins, respectively) was added. The plate was then sealed with a film (to protect from light and volatilization) and incubated at 25°C for 60 min. 3. The plate was transferred to an Envision plate reader to detect FRET signals. (The 665/615 ratio was calculated by reading the emission at 665 nm and 615 nM, respectively.) 4. The IC50 values were determined by analyzing the inhibition at varying compound concentrations using Model 205 in the XLfit software.

T1 sequence (P11802 whole entry): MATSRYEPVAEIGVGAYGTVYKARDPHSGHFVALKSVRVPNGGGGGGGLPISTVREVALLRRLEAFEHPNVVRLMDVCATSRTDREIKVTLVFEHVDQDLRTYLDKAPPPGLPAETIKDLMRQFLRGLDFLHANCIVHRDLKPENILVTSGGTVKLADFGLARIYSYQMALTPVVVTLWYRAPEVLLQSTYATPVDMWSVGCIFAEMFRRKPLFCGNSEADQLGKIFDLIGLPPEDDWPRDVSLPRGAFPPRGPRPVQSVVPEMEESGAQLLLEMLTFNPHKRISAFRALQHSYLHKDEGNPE
T1 sequence (P30281 whole entry partner): as the sequence (P30281 whole entry partner) above

Compound	IC50 [1] [nM]	IC50 [2] [nM]
CCN1CCC(c2ccc(Nc3ncc(Cl)c(C#Cc4cnc(C(C)(C)O)n4C(C)C)n3)nc2)CC1 [Example 76, 2-(5-((5-chloro-2-((5-(1-ethylpiperidin-4-yl)pyridin-2-yl)amino)pyrimidin-4-yl)ethynyl)-1-isopropyl-1H-imidazol-2-yl)propan-2-ol]	2.9	6.53
CC(C)n1c(C#Cc2nc(N[C@@H]3CCOC[C@H]3O)ncc2Cl)cnc1[C@H](C)N1CCC[C@H](O)C1 [Example 124, (S)-1-((S)-1-(5-((5-chloro-2-(((3 S,4R)-3-hydroxytetrahydro-2H-pyran-4-yl)amino)pyrimidin-4-yl)ethynyl)-1-isopropyl-1H-imidazol-2-yl)ethyl)piperidin-3-ol]	182	1160
CC(C)n1c(C#Cc2nc(N[C@@H]3CCOC[C@H]3O)ncc2Cl)cnc1[C@@H](C)N1CCC[C@H](O)C1 [Example 123, (S)-1-((R)-1-(5-((5-chloro-2-(((3 S,4R)-3-hydroxytetrahydro-2H-pyran-4-yl)amino)pyrimidin-4-yl)ethynyl)-1-isopropyl-1H-imidazol-2-yl)ethyl)piperidin-3-ol]	36.9	545
CCN1CCN(Cc2ccc(Nc3cc(C#Cc4cnc(C(C)(C)O)n4C(C)C)c(Cl)cn3)nc2)CC1 [Example 77, 2-(5-((5-chloro-2-((5-((4-ethylpiperazin-1-yl)methyl)pyridin-2-yl)amino)pyridin-4-yl)ethynyl)-1-isopropyl-1H-imidazol-2-yl)propan-2-ol]	1.62	5.94
CC(C)n1c(C#Cc2nc(N[C@@H]3CCOC[C@H]3F)ncc2Cl)cnc1C(C)(C)O [Example 91, 2-(5-((5-chloro-2-(((3 S,4R)-3-fluorotetrahydro-2H-pyran-4-yl)amino)pyrimidin-4-yl)ethynyl)-1-isopropyl-1H-imidazol-2-yl)propan-2-ol]	88.2	333
CC(C)n1c(C#Cc2nc(N[C@@H]3CCOC[C@H]3O)ncc2Cl)cnc1C1CC1 [Example 120, (3 S,4R)-4-((5-chloro-4-((2-cyclopropyl-1-isopropyl-1H-imidazol-5-yl)ethynyl)pyrimidin-2-yl)amino)tetrahydro-2H-pyran-3-ol]	26.1	130
CC(=O)N1CCN(Cc2ccc(Nc3ncc(Cl)c(C#Cc4cnc(CN5CCC[C@H](O)C5)n4C(C)C)n3)nc2)CC1 [Example 106, (S)-1-(4-((6-((5-chloro-4-((2-((3-hydroxypiperidin-1-yl)methyl)-1-isopropyl-1H-imidazol-5-yl)ethynyl)pyrimidin-2-yl)amino)pyridin-3-yl)methyl)piperazin-1-yl)ethan-1-one]	33.3	280
CC1CCN(C)c2ncc(C#Cc3nc(N[C@@H]4CCOC[C@H]4O)ncc3Cl)n21 (stereo partly drawn) [Example 135, (3 S,4R)-4-((5-chloro-4-((5,8-dimethyl-5,6,7,8-tetrahydroimidazo[1,2-a]pyrimidin-3-yl)ethynyl)pyrimidin-2-yl)amino)tetrahydro-2H-pyran-3-ol]	177	275
CC(C)n1c(C#Cc2nc(N[C@@H]3CCOC[C@H]3O)ncc2F)cnc1C(C)(C)O [Example 95, (3 S,4R)-4-((5-fluoro-4-((2-(2-hydroxypropan-2-yl)-1-isopropyl-1H-imidazol-5-yl)ethynyl)pyrimidin-2-yl)amino)tetrahydro-2H-pyran-3-ol]	117	829
CC(C)n1c(C#Cc2nc(N[C@@H]3CCN(S(C)(=O)=O)C[C@H]3O)ncc2Cl)cnc1CN1CCC[C@H](O)C1 [Example 129, (3R,4R)-4-((5-chloro-4-((2-(((S)-3-hydroxypiperidin-1-yl)methyl)-1-isopropyl-1H-imidazol-5-yl)ethynyl)pyrimidin-2-yl)amino)-1-(methanesulfonyl)piperidin-3-ol]	1.48	21
CC(C)n1c(C#Cc2nc(Nc3ccc(C4CCN(C)CC4)cn3)ncc2F)cnc1C(C)(C)O [Example 73, 2-(5-((5-fluoro-2-((5-(1-methylpiperidin-4-yl)pyridin-2-yl)amino)pyrimidin-4-yl)ethynyl)-1-isopropyl-1H-imidazol-2-yl)propan-2-ol]	6.43	26.7
CCN1CC2(C1)CN(c1ccc(Nc3ncc(F)c(C#Cc4cnc(C)n4C(C)C)n3)nc1)C2 [Example 81, N-(5-(6-ethyl-2,6-diazaspiro[3.3]heptan-2-yl)pyridin-2-yl)-5-fluoro-4-((1-isopropyl-2-methyl-1H-imidazol-5-yl)ethynyl)pyrimidin-2-amine]	9.86	59.1
[2H]C(C)(O)c1ncc(C#Cc2nc(N[C@@H]3CCOC[C@H]3O)ncc2Cl)n1C(C)C (stereo partly drawn) [Example 138, (3 S,4R)-4-((S-chloro-4-((2-(1-hydroxyethyl-1-d)-1-isopropyl-1H-imidazol-5-yl)ethynyl)pyrimidin-2-yl)amino)tetrahydro-2H-pyran-3-ol]	5.92	38.4
[2H]C([2H])(c1ncc(C#Cc2nc(Nc3ccc(CN4CCN(CC)CC4)cn3)ncc2Cl)n1C(C)C)N1CCC[C@H](O)C1 [Example 137, (S)-1-((5-((5-chloro-2-((5-((4-ethylpiperazin-1-yl)methyl)pyridin-2-yl)amino)pyrimidin-4-yl)ethynyl)-1-isopropyl-1H-imidazol-2-yl)methyl-d2)piperidin-3-ol]	3.17	53
CC(C)n1c(C#Cc2nc(N[C@@H]3CCOC[C@H]3O)ncc2Cl)cnc1C(=O)N1CCC[C@H](O)C1 [Example 117, (5-((5-chloro-2-(((3 S,4R)-3-hydroxytetrahydro-2H-pyran-4-yl)amino)pyrimidin-4-yl)ethynyl)-1-isopropyl-1H-imidazol-2-yl)((S)-3-hydroxypiperidin-1-yl)methanone]	615	5550
CC(C)n1c(C#Cc2nc(N[C@@H]3CCOC[C@H]3O)ncc2Cl)cnc1N1CCOC1=O [Example 126, 3-(5-((5-chloro-2-(((3S,4R)-3-hydroxytetrahydro-2H-pyran-4-yl)amino)pyrimidin-4-yl)ethynyl)-1-isopropyl-1H-imidazol-2-yl)oxazolidin-2-one]	17	75.8
CC(=O)N1CC2(C1)CN(c1ccc(Nc3ncc(F)c(C#Cc4cnn(C)c4C(C)C)n3)nc1)C2 [Example 89, 1-(6-(6-((5-fluoro-4-((5-isopropyl-1-methyl-1H-pyrazol-4-yl)ethynyl)pyrimidin-2-yl)amino)pyridin-3-yl)-2,6-diazaspiro[3.3]heptan-2-yl)ethan-1-one]	16.2	44.9
CC(C)n1c(C#Cc2nc(N[C@@H]3CCOC[C@H]3O)ncc2Cl)cnc1C1(O)CCCC1 [Example 90, (3 S,4R)-4-((5-chloro-4-((2-(1-hydroxycyclopentyl)-1-isopropyl-1H-imidazol-5-yl)ethynyl)pyrimidin-2-yl)amino)tetrahydro-2H-pyran-3-ol]	23	253
CCN1CC2(C1)CN(c1ccc(Nc3ncc(Cl)c(C#Cc4cnc(C(C)(C)O)n4C(C)C)n3)nc1)C2 [Example 71, 2-(5-((5-chloro-2-((5-(6-ethyl-2,6-diazaspiro[3.3]heptan-2-yl)pyridin-2-yl)amino)pyrimidin-4-yl)ethynyl)-1-isopropyl-1H-imidazol-2-yl)propan-2-ol]	2.52	6.31
CC(C)n1c(C#Cc2nc(N[C@@H]3CCOC[C@H]3O)ncc2Cl)cnc1CN1CCCC(C)(O)C1 (stereo partly drawn) [Example 110, 1-((5-((5-chloro-2-(((3 S,4R)-3-hydroxytetrahydro-2H-pyran-4-yl)amino)pyrimidin-4-yl)ethynyl)-1-isopropyl-1H-imidazol-2-yl)methyl)-3-methylpiperidin-3-ol]	36.1	451
CCN1CCN(Cc2ccc(Nc3ncc(F)c(C#Cc4cnn(C)c4C(C)C)n3)nc2)CC1 [Example 70, N-(5-((4-ethylpiperazin-1-yl)methyl)pyridin-2-yl)-5-fluoro-4-((5-isopropyl-1-methyl-1H-pyrazol-4-yl)ethynyl)pyrimidin-2-amine]	15.1	131
CC(C)n1c(C#Cc2nc(N[C@@H]3CCOC[C@H]3O)ncc2Cl)cnc1CN1[C@@H](C)COC[C@@H]1C [Example 74, (3 S,4R)-4-((5-chloro-4-((2-(((3 S,5 S)-3,5-dimethylmorpholino)methyl)-1-isopropyl-1H-imidazol-5-yl)ethynyl)pyrimidin-2-yl)amino)tetrahydro-2H-pyran-3-ol]	20.1	341
